Reference: patent US12251363B2, “Compositions to enhance a non-surgical medical treatment” (Anti-Plasmin Technologies, LLC, priority 2017, dated 2025)

Assays:
[1] = system: patients receiving hyaluronic acid dermal filler; experiment: Non-surgical clinical use: tranexamic acid solution before and after injection of hyaluronic acid dermal filler, 318 patients; type: in vivo, human; conditions: 3% (w/v) tranexamic acid solution before and after filler injection
From the text: Three patients of the 318 reported instances of bruising or swelling.

[2] = HPLC study of interaction of tranexamic acid with hyaluronic acid dermal filler (JUVEDERM); type: physicochemical; conditions: freshly prepared 3% (w/v) tranexamic acid in filler; injected immediately vs after standing 20 min
Protocol: (§1) Similar to the above-mentioned study, the JUVEDERM® analysis was carried out with fresh sample preparations being immediately injected for analysis as well as sample preparations that were allowed to stand for a 20 minute time period prior to injection.
The sample preparation was prepared as follows: 13 mg of filler (Source: JUVEDERM® Vollere XC) was weighed in a 2.5 mL vial and diluted to 1000 μt volume by adding an aqueous solution of 60:40 ratio, by volume, distilled water/acetonitrile.

[3] = HPLC study to detect any binding interaction of tranexamic acid with hyaluronic acid polymer (ERACLEA product); type: physicochemical
Protocol: First a skin care product from ERACLEA® Skin Care containing 1% (w/v) hyaluronic acid polymer and preservatives was tested. […] The analysis was carried out with fresh sample preparations being mixed and immediately injected into the HPLC system for analysis as well as sample preparations that were mixed and allowed to stand for a 20 minute time period prior to injection.
as §1
The sample preparation was prepared as follows: 10 mg of hyaluronic acid polymer (Source: ERACLEA®, pure hydration) was weighed in 2.5 mL of auto sampler vial and diluted to 1000 μt volume by adding an aqueous solution of 60:40 ratio, by volume, distilled water/acetonitrile and used as a standard stock solution.
The HPLC was conducted with a flow rate of 1 mL/min, a sample concentration of 10 mg/mL, and an injection volume of 10 μt, a wave length of 205 nm and a solvent system of 40:60 ratio, by volume, acetonitrile/distilled water.

[4] = oral administration; cited from earlier work
[5] = system: patients undergoing dermal filler procedures; experiment: Bruising study: tranexamic acid solutions applied before and after dermal filler procedures, 48-hour observation; type: in vivo, human
[6] = 20% (w/v) tranexamic acid solution vs without
[7] = 20% (w/v) tranexamic acid solution, when bruising occurred

interaction between tranexamic acid and JUVEDERM filler [2]: no interaction
interaction between tranexamic acid and hyaluronic acid polymer when mixed in solution ([3]; 3% (w/v) tranexamic acid in solution containing 1% (w/v) hyaluronic acid polymer, mixed several weeks prior to HPLC): no interaction
interaction between tranexamic acid and hyaluronic acid polymer ([3]; freshly prepared 3% (w/v) tranexamic acid in hyaluronic acid polymer, injected immediately vs after standing 20 min): no interaction
interaction between tranexamic acid and the hyaluronic acid in the ERACLEA product ([3]; left in contact for several weeks (0.5% and 3% (w/v) tranexamic acid)): no interaction
SMILES: NC[C@H]1CC[C@H](C(=O)O)CC1 [tranexamic acid]
patients reported instances of bruising or swelling (count) [1]: Three
patients reported instances of bruising and swelling ([1]; 318 patients, about 1 year): Less than 1%
fraction of the TA ingested that does not enter the blood [4]: about half
mild to no bruising combined, patients ([5]; 20% (w/v) tranexamic acid solution): 82%
more patients experienced no bruising vs filler labeling ([5]; 20% (w/v) tranexamic acid solution vs labeling of JUVEDERM VOLLURE XC and VOLBELLA XC): about 28%
improvement in bruising incidence ([5]; 20% (w/v) tranexamic acid solution vs other series, 48-hour observation): three-fold
improvement in mild bruising [5, 6]: 80%
improvement in mild to no bruising combined [5, 6]: 58%
improvement in severe bruising [5, 6]: 100%
patients experienced no bruising ([5]; 20% (w/v) tranexamic acid solution, 48-hour observation): Approximately 45%
patients bruised severely [5, 7]: no patients
patients only bruised mildly [5, 7]: 67%
patients experienced no bruising ([5]; other series of patients (3%, 5%, 10% (w/v), and 3% plus home use for two days), 48-hour observation): about 15%
